# Test results from US7390830B1, “Remedies or prophylactics for diseases in association with chemokines” (Teijin Limited, priority 1999, dated 2008).
# Columns and labels:
# [1] = target: T1, human MCP-1 binding to THP-1 cells (Homo sapiens, UniProt P41597); assay: Inhibitory activity against binding of [125I]-labeled human MCP-1 to THP-1 cells (method 2); conditions: concentration of 1 μM
# T1 construct: endogenous in cells; host or cells: THP-1 (whole cells)
# T1 sequence (P41597 1-360 isoform P41597-2): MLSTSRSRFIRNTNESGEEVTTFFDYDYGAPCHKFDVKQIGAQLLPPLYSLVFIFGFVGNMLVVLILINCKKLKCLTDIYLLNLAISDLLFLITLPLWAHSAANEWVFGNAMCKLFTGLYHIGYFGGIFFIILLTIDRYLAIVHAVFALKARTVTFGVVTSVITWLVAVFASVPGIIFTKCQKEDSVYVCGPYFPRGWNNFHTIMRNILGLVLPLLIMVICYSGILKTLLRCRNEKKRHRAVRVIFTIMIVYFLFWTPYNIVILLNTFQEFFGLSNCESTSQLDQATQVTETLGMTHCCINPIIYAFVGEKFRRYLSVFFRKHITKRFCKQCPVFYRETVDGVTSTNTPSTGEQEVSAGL
# Text: Two kinds of DNA synthetic primers (5′-[…]-3′ (SEQ ID NO:1) and 5′-[…]-3′) (SEQ ID NO:2) having restriction enzyme recognition sites applied on the basis of the known human MCP-1 gene sequence (see, for example, Yoshimura, T. et al. FEBS Letters 1989, 244, 487-493) were used to amplify a cDNA derived from human vascular endothelial cells (purchased from Kurabow) according to a PCR method. The amplified fragment was cleaved with restriction enzymes (PstI and XbaI) and then ligated into a transfer vector pVL1393 (Invitrogen Co.). The resulting vector was co-transfected with an infectious baculovirus into Sf-9 insect cells. Human MCP-1 gene recombinant baculoviruses were isolated from the obtained supernatant by a plaque assay method.
# According to the method of Ishii, K. et al. (see Biochemical and Biophysical Research Communications, 1995, 206, 955-961), 5×10^6 cells of Sf-9 insect cells were infected with 5×10^7 PFU (plaque-forming units) of the above human MCP-1 gene recombinant baculoviruses and cultured in EX-CELL 401 medium for 7 days. The resulting culture supernatant was affinity purified by a heparin-Sepharose column (Pharmacia Co.) and then subjected to reverse phase HPLC (Vydac C18 column) to afford a purified human MCP-1. The protein labeling of the resulting purified human MCP-1 was requested for Amersham Co. to obtain a [^125I]-labeled human MCP-1 expressed with baculovirus (specific activity: 2000 Ci/mmol) prepared by the Bolten Hunter method. The resulting [^125I]-labeled human MCP-1 was used for the following tests.
# THP-1 cells which are human monocytic leukemia cell line were suspended in an assay buffer (containing 50 mM of HEPES, 11.0 mM of CaCl2, 5.0 mM of MgCl2 and 0.5% of BSA at pH 7.4) so as to provide 1×10^7 cells/mL to thereby obtain a cell suspension. A solution obtained by diluting the test compound with the assay buffer was used as a test compound solution. A solution prepared by diluting the above [^125I]-labeled human MCP-1 expressed with baculovirus with the assay buffer so as to provide 1 μCi/mL was used as a labeled ligand solution. In a 96-well filter plate (Millipore Co.), were aliquoted 25 μL of the test compound solution, 25 μL of the labeled ligand solution and 50 μL of the cell suspension in the order mentioned for each well. The solutions were stirred (100 μL of the reaction solution) and then incubated at 18° C. for 1 hour.
# After completing the reaction, the reaction solution was filtered through a filter, and the filter was washed with 200 μL of cold PBS twice (the reaction solution was filtered after adding 200 μL of the cold PBS). The filter was air-dried, and […] of liquid scintillator was then added by into each well to count the radioactivity retained by the cells on the filter using TopCount (Packard Instrument Co.). The count when 100 ng of the above human MCP-1 expressed with baculovirus(unlabeled) instead of the test compound was added was subtracted as nonspecific adsorption, and the count when the test compound was not added was 100%. Thereby, the inhibitory activity of the test compound against binding of the human MCP-1 to THP-1 cells was calculated. Inhibition ratio (%)={1−(A−B)/(C−B)}×100 (wherein A is the count when the test compound is added; B is the count when 100 ng of the unlabeled human MCP-1 is added; C is the count when only the [^125I]-labeled human MCP-1 is added).
# [2] = system: THP-1 cells; assay: Inhibitory activity against cell chemotaxis caused by MCP-1; assay type: cell-based; conditions: Homo sapiens, MCP-1 20 ng/mL
# Text: In order to determine the inhibitory activity of the compounds according to the present invention against the cell chemotaxis, human monocytic leukemia cell line THP-1 was used as chemotactic cells according to the method of Fall et al. (J. Immunol. Methods, 1980, 33, 239-247) to determine the cell chemotaxis caused by monocyte chemotactic factor MCP-1 as follows: Namely, 2×10^6 cells/mL of the THP-1 cells [suspended in RPMI-1640 (Flow Laboratories Co.) 10% FCS] were placed in the upper chamber (200 μL) of a 96-well microchemotaxis chamber (Neuroprobe®), and human recombinant MCP-1 (Peprotech Co.) diluted with the same solution so as to provide the final concentration of 20 ng/mL was placed in the lower chamber (35 μL). A polycarbonate filter (PVP-free, Neuroprobe®) was placed between the two chambers. These were incubated in the presence of 5% of CO2 at 37° C. for 2 hours.
# The filter was removed, and the cells which had migrated to the undersurface of the filter were immobilized, stained using Diff Quick (Kokusai Shiyaku Co.) and then measured at a measuring wavelength of 550 nm using a plate reader (Molecular Device Co.) to determine the means of 3 wells. Thereby, the indication of the number of cells migrated was obtained. The test compound together with the THP-1 cells was added to the upper chamber at various concentrations to determine the inhibitory activity against cell chemotaxis [degree of inhibition: IC50 (μM)].
# [3] = system: collagen-induced arthritis; assay: Collagen-induced arthritis in mice; assay type: in vivo, DBA/1 mice
# [4] = system: glomerulonephritis induced by anti-glomerular basement membrane serum; assay: Masugi's nephritis model in WKY rats; assay type: in vivo; conditions: 100 mg/kg orally twice a day
# Procedure: Rabbits were immunized with a trypsin fraction of rat kidney cortex to provide an anti-glomerular basement membrane serum which was intravenously injected to 4-weeks-old female WKY rats (Charles River) in a dose of 2.5 mL/kg body weight to induce glomerulonephritis. After injection of the antiserum, urine of each animal was collected for 24 hours with metabolic cages for rats (Clea Japan, Inc.) on the 1st, 4th, 7th, 10th and 14th days after the injection. The amount of the urine was measured by urine weight and the protein content in the urine was measured by using a kit for assaying proteins in urine and cerebrospinal fluid (Tonein TP-II, Otsuka Pharmaceutical Co., Ltd.) to determine the amount of proteins excreted in urine per day. Serum of the animals subjected to the experiments was collected on the 15th day after injecting the antiserum, and creatinine concentration in blood was measured with a creatinine assay kit (Autosera®), Daiichi Pure Chemicals Co., Ltd.) using a Hitach±7070 model autoanalyzer. The test compound was daily orally administered in a dose of 100 mg/kg body weight twice a day from the date of injecting the anti-glomerular basement membrane serum (about 10:00 a.m. and about 6:00 p.m. in Experiment 1 and about 10:00 a.m. and about 5:00 p.m. in Experiment 2). In the control group, only the solution (a 0.5% aqueous solution of sodium carboxymethylcellulose) was orally administered. The administration volume was 10 mL/kg body weight, and the number of animals (N) was 10.
# [5] = system: chronic relapsing experimental allergic encephalomyelitis; assay: Chronic relapsing experimental allergic encephalomyelitis in mice; assay type: in vivo, SJL/J×PL/J F1 mice; conditions: for Onset Date, First Attack: SJL/J×PL/J F1 mice; for Onset Date, First Attack / Duration of Clinical Sign, First Attack / Onset Date, Second Attack (Relapse): to 41 days after injection of the emulsion; for Maximal Clinical Score, First Attack / Maximal Clinical Score, Second Attack (Relapse): score 0-5, to 41 days after injection of the emulsion
# [6] = 100 mg/kg body weight orally, vs control
structure (smiles),measurement,setting,value
"Nc1ccc(C(F)(F)F)cc1C(=O)NCC(=O)N[C@@H]1CCN(c2ccc3ocnc3c2)C1 [Compd. No. 2189, (R)-3-[[N-(2-amino-5-trifluoromethylbenzoyl)glycyl]amino]-1-(benz[d]oxazol-5-yl)pyrrolidine]",inhibition at 1 µM,[1],> 80%
same,IC50,[2],≤ 100 nM
"Cc1noc(C)c1N1CCC(CNC(=O)CNC(=O)c2cc(F)c(F)cc2N)CC1 [Compd. No. 2131, 4-[[N-(2-amino-4,5-difluorobenzoyl)glycyl]aminomethyl]-1-(3,5-dimethylisoxazol-4-yl)piperidine]",inhibition at 1 µM,[1],20 to 50%
"Cc1ccc(C(=O)NCC(=O)NCC2CCN(Cc3ccc(Cl)cc3)CC2)cc1Br [Compd. No. 1113, 4-[[N-(3-bromo-4-methylbenzoyl)glycyl]aminomethyl]-1-(4-chlorobenzyl)piperidine]",inhibition at 1 µM,[1],50 to 80%
"COc1ncc(CN2CC[C@@H](NC(=O)CNC(=O)c3cc(C(F)(F)F)ccc3N)C2)c(OC)n1 [Compd. No. 2175, (R)-3-[[N-(2-amino-5-trifluoromethylbenzoyl)glycyl]amino]-1-(2,4-dimethoxypyrimidin-5-ylmethyl)pyrrolidine]",inhibition at 1 µM,[1],50 to 80%
"COCCNC(=O)c1ccc(CN2CCC(CNC(=O)CNC(=O)c3cccc(C(F)(F)F)c3)CC2)cc1 [Compd. No. 1612, 1-[4-[N-(2-methoxyethyl)carbamoyl]benzyl]-4-[[N-(3-(trifluoromethyl)benzoyl)glycyl]aminomethyl]piperidine]",inhibition at 1 µM,[1],20 to 50%
Nc1ccc(C(F)(F)F)cc1C(=O)NCC(=O)N[C@@H]1CCN(Cc2ccc(Cl)cc2)C1 [Compd. No. 1583],chondrolysis of articular cartilages,"[3]; knee joint, oral 12 weeks",significantly inhibited
same,osteolysis of subchondral bone,"[3]; knee joint, oral 12 weeks",significantly inhibited
same,synovial hyperplasia,"[3]; knee joint, oral 12 weeks",significantly inhibited
same,arthritis scores,"[3]; orally once a day for 12 weeks, vs control group",significantly inhibited arthritis scores
same,inhibition of the concentration of urinary proteins,"[4]; 7th day after antiserum, vs control",26%
same,inhibition of the concentration of urinary proteins,"[4]; 10th day after antiserum, vs control",51%
same,inhibition of the concentration of urinary proteins,"[4]; 14th day after antiserum, vs control",54%
same,decrease of creatinine concentration in blood,"[4]; 15th day after antiserum, vs control",20%
same,Serum Creatinine Concentration,[4]; on the 15th Day,0.39 ± 0.03 mg/dL
same,"Onset Date, First Attack",[5]; 30 mg/kg body weight oral,12.3 ± 1.9
same,"Maximal Clinical Score, First Attack",[5]; 30 mg/kg body weight oral,3.5 ± 0.9
same,"Maximal Clinical Score, Second Attack (Relapse)",[5]; 30 mg/kg body weight oral,3.7 ± 0.6
same,"Duration of Clinical Sign, First Attack",[5]; 30 mg/kg body weight oral,9.8 ± 3.3
same,"Onset Date, Second Attack (Relapse)",[5]; 30 mg/kg body weight oral,26.3 ± 3.4
same,"onset date, symptoms and onset period at the first attack","[5]; 30 mg/kg body weight orally, vs control",distinct effects on the items were not found
same,"Onset Date, First Attack",[5]; 100 mg/kg body weight oral,13.6 ± 2.0
same,"Maximal Clinical Score, First Attack",[5]; 100 mg/kg body weight oral,2.4 ± 1.3
same,"Maximal Clinical Score, Second Attack (Relapse)",[5]; 100 mg/kg body weight oral,3.0 ± 0.9
same,"Duration of Clinical Sign, First Attack",[5]; 100 mg/kg body weight oral,5.7 ± 3.8
same,"Onset Date, Second Attack (Relapse)",[5]; 100 mg/kg body weight oral,28.5 ± 4.7
same,onset date at the first attack,[5]; [6],tendency to delay the onset date (no significant difference)
same,onset period at the first attack,[5]; [6],shortening of onset period (p<0.05)
same,symptoms (clinical scores) at the first attack,[5]; [6],symptom inhibition (p<0.05)
"COc1ccc(CN2CCC(CNC(=O)CNC(=O)c3cccc(C(F)(F)F)c3)CC2)cc1O [Compd. No. 1452, 1-[3-hydroxy-4-methoxybenzyl]-4-[[N-(3-(trifluoromethyl)benzoyl)glycyl]aminomethyl]piperidine]",inhibition at 1 µM,[1],20 to 50%
"Nc1cc(F)c(F)cc1C(=O)NCC(=O)NCC1CCN(c2ccc3nonc3c2)CC1 [Compd. No. 2130, 4-[[N-(2-amino-4,5-difluorobenzoyl)glycyl]aminomethyl]-1-(benzo[c]furazan-5-yl)piperidine]",inhibition at 1 µM,[1],20 to 50%
"Nc1ccc(Cl)cc1C(=O)NCC(=O)N[C@@H]1CCN(Cc2ccc(Cl)cc2)C1 [Compd. No. 1084, (R)-1-(4-chlorobenzyl)-3-[[N-(2-amino-5-chlorobenzoyl)glycyl]amino]pyrrolidine]",inhibition at 1 µM,[1],50 to 80%
